In ChEMBL document CHEMBL1909046, “DrugMatrix in vitro pharmacology data” one finds IC50 and Ki data, which are given here for 23 molecules.

SMILES strings stand for the structures.

Assay [1] is described as follows: DRUGMATRIX: Calcium Channel Type L, Benzothiazepine radioligand binding (ligand: [3H] Diltiazem). The class given is cell membranes, Rattus norvegicus, Wistar, Brain, Membrane. To be noted: Not Active = under 50% inhibition at 10 µM.
In assay [2] the target is T1, Cholecystokinin receptor type A (Homo sapiens, UniProt P32238). Note: in other assays of this panel Not Active means under 50% inhibition at 10 µM.
T1 sequence (P32238 whole entry): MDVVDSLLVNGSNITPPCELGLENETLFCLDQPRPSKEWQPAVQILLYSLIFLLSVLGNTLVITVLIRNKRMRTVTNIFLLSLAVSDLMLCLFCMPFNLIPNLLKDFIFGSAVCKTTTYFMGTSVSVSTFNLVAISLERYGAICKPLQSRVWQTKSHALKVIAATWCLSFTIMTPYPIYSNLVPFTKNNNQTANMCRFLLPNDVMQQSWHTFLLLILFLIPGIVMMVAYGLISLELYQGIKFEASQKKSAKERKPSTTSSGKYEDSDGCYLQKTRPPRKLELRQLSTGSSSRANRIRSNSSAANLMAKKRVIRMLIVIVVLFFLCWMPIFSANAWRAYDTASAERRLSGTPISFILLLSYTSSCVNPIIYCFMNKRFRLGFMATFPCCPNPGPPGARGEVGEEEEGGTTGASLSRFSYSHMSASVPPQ
The format is cell membranes, Membrane. To be noted: 1321-n1.

In another assay the target is T2, D(4) dopamine receptor (Homo sapiens, UniProt P21917).
T2 sequence (P21917 whole entry): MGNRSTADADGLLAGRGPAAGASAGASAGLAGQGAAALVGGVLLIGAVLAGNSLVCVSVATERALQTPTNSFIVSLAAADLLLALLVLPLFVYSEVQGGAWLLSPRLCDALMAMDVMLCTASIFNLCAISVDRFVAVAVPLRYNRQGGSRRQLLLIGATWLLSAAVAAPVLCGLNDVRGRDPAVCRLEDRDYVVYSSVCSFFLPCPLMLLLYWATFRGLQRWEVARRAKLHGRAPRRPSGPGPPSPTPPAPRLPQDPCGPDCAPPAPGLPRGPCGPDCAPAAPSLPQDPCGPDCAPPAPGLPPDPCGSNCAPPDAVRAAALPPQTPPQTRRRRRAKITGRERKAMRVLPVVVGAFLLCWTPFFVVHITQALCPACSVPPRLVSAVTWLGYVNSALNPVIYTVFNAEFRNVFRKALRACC
As to the kind of experiment: DRUGMATRIX: Dopamine D4.2 radioligand binding (ligand: [3H] Spiperone). The class given is cell membranes, CHO-K1, Membrane. The note with it: cho-k1; Not Active = under 50% inhibition at 10 µM.

The target of assay [3] is Mitogen-activated protein kinase 14 (Homo sapiens, UniProt Q16539). Details: species or system Escherichia coli.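 Note: inhibition of p38alpha enzyme activity in a biochemical kinase assay, with myelin basic protein serving as substrate; in other assays of this panel Not Active means under 50% inhibition at 10 µM.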
Sequence of Mitogen-activated protein kinase 14 (Q16539 whole entry): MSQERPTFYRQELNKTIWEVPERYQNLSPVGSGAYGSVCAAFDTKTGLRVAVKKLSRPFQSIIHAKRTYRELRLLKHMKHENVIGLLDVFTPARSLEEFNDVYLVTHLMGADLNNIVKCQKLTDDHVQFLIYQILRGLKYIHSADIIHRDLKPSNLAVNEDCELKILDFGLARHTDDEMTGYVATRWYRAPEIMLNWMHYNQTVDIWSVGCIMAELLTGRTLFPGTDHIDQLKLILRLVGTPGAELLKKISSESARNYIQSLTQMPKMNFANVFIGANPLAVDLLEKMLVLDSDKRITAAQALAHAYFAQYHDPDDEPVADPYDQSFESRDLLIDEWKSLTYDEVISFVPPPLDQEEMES
For assay [4], the target named is T3, 5-hydroxytryptamine receptor 2C (Homo sapiens, UniProt P28335).
T3 sequence (P28335 whole entry): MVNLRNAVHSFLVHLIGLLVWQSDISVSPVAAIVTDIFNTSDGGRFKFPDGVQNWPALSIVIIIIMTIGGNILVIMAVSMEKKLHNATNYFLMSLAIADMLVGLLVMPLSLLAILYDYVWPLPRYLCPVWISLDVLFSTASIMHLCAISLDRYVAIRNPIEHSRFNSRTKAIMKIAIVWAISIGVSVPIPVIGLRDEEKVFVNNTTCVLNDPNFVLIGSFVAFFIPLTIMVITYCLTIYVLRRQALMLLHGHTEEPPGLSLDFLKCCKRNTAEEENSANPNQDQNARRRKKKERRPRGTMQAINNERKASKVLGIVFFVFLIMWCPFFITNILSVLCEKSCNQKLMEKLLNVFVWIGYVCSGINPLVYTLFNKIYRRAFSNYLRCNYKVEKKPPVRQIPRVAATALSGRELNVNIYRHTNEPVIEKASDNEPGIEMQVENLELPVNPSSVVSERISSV
As to the kind of experiment: DRUGMATRIX: Serotonin (5-Hydroxytryptamine) 5-HT2C radioligand binding (ligand: [3H] Mesulergine). The class given is cell membranes, CHO-K1, Membrane. To be noted: Not Active = under 50% inhibition at 10 µM; for Ki: read-out: Ki.

Broadly, the IC50 is the concentration at which inhibition is half-maximal. For orientation: Ki means a measure of affinity in units of concentration, obtained from inhibition or displacement. For the molecule `CCCNCC(O)COc1ccccc1C(=O)CCc1ccccc1` (stereo not drawn) [PROPAFENONE], the 50% inhibitory concentration (IC50) in assay [1] (read-out: IC50) is 775 nM; in assay [2], “Not Active”; at D(4) dopamine receptor, “Not Active”; in assay [3], “Not Active”. For the same molecule, the Ki in assay [1] (read-out: Ki) is 689 nM.
Take `Brc1c(NC2=NCCN2)ccc2nccnc12` [BRIMONIDINE]: the half-maximal inhibitory concentration (IC50) entry (in assay [1]; in assay [4] (cho-k1); in assay [2]; on D(4) dopamine receptor; in assay [3]) was “Not Active” throughout. For the same molecule, in assay [1], the Ki result is given as “Not Active”.
With `CC[C@H]1CN2CCc3cc(OC)c(OC)cc3[C@@H]2C[C@@H]1C[C@H]1NCCc2cc(OC)c(OC)cc21` [EMETINE], the IC50 was 2360 nM in assay [1] (read-out: IC50); “Not Active” in assay [4] (cho-k1); “Not Active” in assay [2]; “Not Active” on D(4) dopamine receptor; “Not Active” in assay [3]. In addition, the inhibition constant (Ki) in assay [1] (read-out: Ki) amounted to 2090 nM.
With `COc1cc([C@@H]2c3cc4c(cc3[C@@H](O[C@@H]3O[C@@H]5CO[C@@H](C)O[C@H]5[C@H](O)[C@H]3O)[C@H]3COC(=O)[C@H]23)OCO4)cc(OC)c1O` [ETOPOSIDE], the IC50 entry (in assay [1]; in assay [4] (cho-k1); in assay [2]; on D(4) dopamine receptor; in assay [3]) was “Not Active” in each case. Moreover, the Ki entry in assay [1] is recorded as “Not Active”.
With `COC(=O)CCc1ccc(OCC(O)CNC(C)C)cc1` (stereo not drawn) [ESMOLOL], the half-inhibitory concentration (IC50) result (in assay [1]; in assay [4] (cho-k1); in assay [2]; at D(4) dopamine receptor; in assay [3]) was “Not Active” in each case. Moreover, the inhibition constant (Ki) entry in assay [1] was “Not Active”.
`COc1ccc(C(=O)N2CCCC2=O)cc1`: the IC50 entry (in assay [1]; in assay [4] (cho-k1); in assay [2]; on D(4) dopamine receptor; in assay [3]) was “Not Active” each time. Further, the inhibition constant Ki result in assay [1] was “Not Active”.
For `Cc1c(OCC(F)(F)F)ccnc1C[S+]([O-])c1nc2ccccc2[nH]1` (stereo not drawn) [LANSOPRAZOLE], the concentration for half-maximal inhibition (IC50) result (in assay [1]; in assay [4] (cho-k1); in assay [2]; on D(4) dopamine receptor; in assay [3]) was “Not Active” each time. Further, the inhibition constant Ki entry in assay [1] is reported as “Not Active”.
With `C[C@@H]1C[C@H]2[C@@H]3CCC4=CC(=O)C=C[C@]4(C)[C@@]3(F)[C@@H](O)C[C@]2(C)[C@H]1C(=O)CO` [DESOXIMETASONE], the IC50 entry (in assay [1]; in assay [4] (cho-k1); in assay [2]; on D(4) dopamine receptor; in assay [3]) was “Not Active” in each case. Besides, in assay [1], the inhibition constant (Ki) result is given as “Not Active”.
On to `N=C(N)NC(=O)Cc1c(Cl)cccc1Cl` [GUANFACINE], for which the IC50 result in assay [1] was “Not Active”; in assay [4] (read-out: IC50), 1450 nM; in assay [2], “Not Active”; at D(4) dopamine receptor it was “Not Active”; in assay [3], “Not Active”. The figures for the inhibition constant Ki result in assay [1] and in assay [4] were “Not Active” and 761 nM, respectively.
In the case of `CC(=O)[C@@]1(O)CC[C@H]2[C@@H]3CCC4=CC(=O)CC[C@]4(C)[C@H]3CC[C@@]21C` [HYDROXYPROGESTERONE], the half-inhibitory concentration (IC50) entry (in assay [1]; in assay [4] (cho-k1); in assay [2]; on D(4) dopamine receptor; in assay [3]) was “Not Active” in each case. Also, the Ki entry in assay [1] is on record as “Not Active”.
Turning to `O=C(N/N=C/c1ccc([N+](=O)[O-])o1)c1cc([N+](=O)[O-])cc([N+](=O)[O-])c1O` [NIFURSOL], the IC50 entry (in assay [1]; in assay [4] (cho-k1); in assay [2]; at D(4) dopamine receptor; in assay [3]) was “Not Active” in each case. In addition, the Ki entry in assay [1] is on record as “Not Active”.
Consider `CC(C)NCC(O)COc1cccc2[nH]ccc12` (stereo not drawn) [PINDOLOL], for which the half-maximal inhibitory concentration (IC50) result (in assay [1]; in assay [4] (cho-k1); in assay [2]; on D(4) dopamine receptor; in assay [3]) was “Not Active” throughout. In assay [1], the Ki entry is “Not Active”.
For `NNc1nncc2ccccc12` [HYDRALAZINE], the concentration for half-maximal inhibition (IC50) entry (in assay [1]; in assay [4] (cho-k1); in assay [2]; on D(4) dopamine receptor; in assay [3]) was “Not Active” throughout. Further, the Ki entry in assay [1] is given as “Not Active”.
Take `NCCCC(O)(P(=O)(O)O)P(=O)(O)O` [ALENDRONIC ACID]: the IC50 entry (in assay [1]; in assay [4] (cho-k1); in assay [2]; on D(4) dopamine receptor; in assay [3]) was “Not Active” throughout. In addition, the inhibition constant (Ki) result in assay [1] is given as “Not Active”.
In the case of `O=C1O[C@H]([C@@H](O)CO)C(O)=C1O` [ASCORBIC ACID], the 50% inhibitory concentration (IC50) result (in assay [1]; in assay [4] (cho-k1); in assay [2]; on D(4) dopamine receptor; in assay [3]) was “Not Active” each time. Moreover, the Ki entry in assay [1] is “Not Active”.
On to `CCC1(CCC(C)C)C(=O)NC(=O)NC1=O` [AMOBARBITAL], for which the IC50 entry (in assay [1]; in assay [4] (cho-k1); in assay [2]; on D(4) dopamine receptor; in assay [3]) was “Not Active” in each case. In assay [1], the inhibitory constant (Ki) result is listed as “Not Active”.
On to `CN(C)CC[C@@H](c1ccc(Cl)cc1)c1ccccn1` [DEXCHLORPHENIRAMINE], for which the half-inhibitory concentration (IC50) was 6130 nM in assay [1] (read-out: IC50); 2320 nM in assay [4] (read-out: IC50); “Not Active” in assay [2]; “Not Active” at D(4) dopamine receptor; “Not Active” in assay [3]. Moreover, the figures for the inhibition constant (Ki) in assay [1] (read-out: Ki) and in assay [4] were 5450 nM and 1220 nM, respectively.
Take `CC1(C)S[C@@H]2[C@H](NC(=O)[C@H](N)c3ccccc3)C(=O)N2[C@H]1C(=O)O` [AMPICILLIN]: the concentration for half-maximal inhibition (IC50) entry (in assay [1]; in assay [4] (cho-k1); in assay [2]; on D(4) dopamine receptor; in assay [3]) was “Not Active” in each case. Also, the Ki entry in assay [1] is “Not Active”.
Regarding `CN(C)[C@@H]1C(O)=C(C(N)=O)C(=O)[C@@]2(O)C(O)=C3C(=O)c4c(O)ccc(Cl)c4[C@@](C)(O)[C@H]3C[C@@H]12` [CHLORTETRACYCLINE], the 50% inhibitory concentration (IC50) result (in assay [1]; in assay [4] (cho-k1); in assay [2]; at D(4) dopamine receptor; in assay [3]) was “Not Active” throughout. In addition, the Ki result in assay [1] is on record as “Not Active”.
Consider `Cn1c(=O)c2[nH]cnc2n(C)c1=O.Cn1c(=O)c2[nH]cnc2n(C)c1=O.NCCN` [AMINOPHYLLINE], for which the IC50 entry (in assay [1]; in assay [4] (cho-k1); in assay [2]; at D(4) dopamine receptor; in assay [3]) was “Not Active” each time. For the same molecule, in assay [1], the Ki result is “Not Active”.
As for `C[C@H]1O[C@@H](n2cc(F)c(=O)[nH]c2=O)[C@H](O)[C@@H]1O` [DOXIFLURIDINE], the half-maximal inhibitory concentration (IC50) entry (in assay [1]; in assay [4] (cho-k1); in assay [2]; at D(4) dopamine receptor; in assay [3]) was “Not Active” throughout. The Ki entry in assay [1] is “Not Active”.
With `C[C@@H](CO)NC(=O)[C@@H]1C=C2c3cccc4[nH]cc(c34)C[C@H]2N(C)C1` [ERGONOVINE], the 50% inhibitory concentration (IC50) result in assay [1] was “Not Active”; in assay [4] (read-out: IC50), 21 nM; at D(4) dopamine receptor it was “Not Active”; in assay [3], “Not Active”. Moreover, the values for the Ki entry in assay [1] and in assay [4] were “Not Active” and 11 nM, respectively.
Consider `CN1[C@@H]2CC[C@H]1C[C@@H](OC(=O)C(CO)c1ccccc1)C2` (stereo partly drawn) [ATROPINE], for which the IC50 result (in assay [1]; in assay [2]; on D(4) dopamine receptor; in assay [3]) was “Not Active” in each case. Further, in assay [1], the inhibition constant Ki entry is reported as “Not Active”.
